In patent US20240226228A1, “ANTIMICROBIAL PEPTOID HAVING IMPROVED SELECTIVITY AND ANTIMICROBIAL COMPOSITION COMPRISING SAME” (priority 2021, published 2024):
≈ marks a conversion by molar mass, not a printed value. Read-outs that look alike come from different tables or passages of the source. Where a SMILES comes first, the peptide text is derived from it. [ ]: non-standard residue; d: D form. Gly(N(CH2)2(3-indolyl)) = O=C(O)CNCCc1c[nH]c2ccccc12; Gly(N-CH2CH2-imidazol-4-yl) = O=C(O)CNCCc1c[nH]cn1; Nspe = C[C@H](NCC(=O)O)c1ccccc1; Nlys = NCCCCNCC(=O)O

How the values were obtained:
[1] = HPLC to confirm peptoid decomposition after counter ion substitution; type: physicochemical; conditions: HPLC at 220 nm; HCl and AcOH
Description: FIGS. 76 to 83 are the HPLC results for Peptoids 1, 10, 11, 14, 15, 29, 32 and 37 of the present inventive concept to confirm the decomposition of the peptoids after counter ion substitution using (a) HCl and (b) AcOH.
Referring to FIGS. […], HPLC was performed for Peptoids 1, 10, 11, 14, 15, 29, 32 and 37 of the present inventive concept. Since the chloride (HCl) is a stronger acid than TFA, it can decompose acid-vulnerable peptoid compounds.

E. coli ATCC25922 = conditions: for antimicrobial activity (in words): E. coli and S. aureus, compared to Peptoid 1, parent peptoid or TFA salt as stated
Outline: (§1)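 Cation-adjusted MHB2 cultures (18 h, subcultured 4 h) adjusted to 2×10^5–5×10^5 CFU/mL in medium with 0.02% BSA and 0.001% acetic acid.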

S. aureus ATCC 25923 = system: S. aureus ATCC 25923
Outline: as §1

red blood cells = test: Hemolysis assay; type: cell-based, Sprague-Dawley mouse
Outline: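 Peptoid is mixed with 10% (v/v) PBS-washed erythrocytes (male Sprague-Dawley […], 13 weeks) and held 1 h at 37 °C. Hemolysis is calculated from 540 nm absorbance of the supernatant, with PBS as 0% and Triton X-100 as 100%.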

[2] = Tables 11-13, 24 hours at 37° C., maximum concentration 25 μM
[3] = Table 18, TFA salt vs counter ion-substituted (HCl, AcOH) peptoids

SMILES	MIC E. coli ATCC25922 (E. coli ATCC25922; ATCC25922)	MIC S. aureus ATCC 25923 (S. aureus ATCC 25923; ATCC 25923)	peptoid decomposition after counter ion substitution (in words) [1]	antimicrobial activity (in words) (E. coli ATCC25922)	MIC E. coli ATCC25922 (E. coli ATCC25922; [2])	MIC S. aureus ATCC 25923 (S. aureus ATCC 25923; [3])	MIC S. aureus ATCC 25923 (S. aureus ATCC 25923; [2])	MIC E. coli ATCC25922 (E. coli ATCC25922; [3])	HD10 (red blood cells)	HD50 (red blood cells)	Hmax (100 μM) (red blood cells)
C[C@@H](c1ccccc1)N(CC(N)=O)C(=O)CN(C(=O)CN(CCCCN)C(=O)CN(C(=O)CN(C(=O)CN(CCCCN)C(=O)CN(C(=O)CN(C(=O)CN(CCCCN)C(=O)CN(CCc1c[nH]c2ccccc12)C(=O)CN(C(=O)CNCCCCN)[C@@H](C)c1ccccc1)[C@@H](C)c1ccccc1)[C@@H](C)c1ccccc1)[C@@H](C)c1ccccc1)[C@@H](C)c1ccccc1)[C@@H](C)c1ccccc1 [Peptoid 10, H-NLys-Nspe-NhTrp-NLys-Nspe-Nspe-NLys-Nspe-Nspe-NLys-Nspe-Nspe-NH2]	3.1 µM (≈ 5.76 µg/mL)		almost no peptoid decomposition occurred	antimicrobial activity was reduced	3.1 µM (≈ 5.76 µg/mL)	0.8 µM	1.6 µM (≈ 2.97 µg/mL)				
C[C@@H](c1ccccc1)N(CC(N)=O)C(=O)CN(C(=O)CN(CCCCN)C(=O)CN(C(=O)CN(CCc1c[nH]c2ccccc12)C(=O)CN(CCCCN)C(=O)CN(CCc1c[nH]c2ccccc12)C(=O)CN(C(=O)CN(CCCCN)C(=O)CN(C(=O)CN(C(=O)CNCCCCN)[C@@H](C)c1ccccc1)[C@@H](C)c1ccccc1)[C@@H](C)c1ccccc1)[C@@H](C)c1ccccc1)[C@@H](C)c1ccccc1 [Peptoid 15, H-NLys-Nspe-Nspe-NLys-Nspe-NhTrp-NLys-NhTrp-Nspe-NLys-Nspe-Nspe-NH2]		1.6 µM (≈ 3.04 µg/mL)	almost no peptoid decomposition occurred	antimicrobial activity was reduced	6.3 µM (≈ 12 µg/mL)		1.6 µM (≈ 3.04 µg/mL)	3.1 µM			
C[C@@H](c1ccccc1)N(CC(=O)N(CCCCN)CC(=O)N(CC(=O)N(CC(=O)N(CCCCN)CC(=O)N(CC(=O)N(CC(=O)N(CCCCN)CC(N)=O)[C@@H](C)c1ccccc1)[C@@H](C)c1ccccc1)[C@@H](C)c1ccccc1)[C@@H](C)c1ccccc1)C(=O)CN(C(=O)CN(CCCCN)C(=O)CN(CCc1c[nH]c2ccccc12)C(=O)CNCCc1c[nH]c2ccccc12)[C@@H](C)c1ccccc1 [Peptoid 37, H-NhTrp-NhTrp-NLys-Nspe-Nspe-NLys-Nspe-Nspe-NLys-Nspe-Nspe-NLys-NH2] (H-[Gly(N(CH2)2(3-indolyl))][Gly(N(CH2)2(3-indolyl))][Nlys][Nspe][Nspe][Nlys][Nspe][Nspe][Nlys][Nspe][Nspe][Nlys]-NH2)	3.1 µM (≈ 5.88 µg/mL)		almost no peptoid decomposition occurred	antimicrobial activity was reduced	3.1 µM (≈ 5.88 µg/mL)	1.6 µM	1.6 µM (≈ 3.04 µg/mL)				
C[C@@H](c1ccccc1)N(CC(N)=O)C(=O)CN(CCCCN)C(=O)CN(CCc1c[nH]cn1)C(=O)CN(C(=O)CN(C(=O)CN(CCCCN)C(=O)CN(C(=O)CN(C(=O)CN(CCCCN)C(=O)CN(CCc1c[nH]c2ccccc12)C(=O)CN(CCc1c[nH]c2ccccc12)C(=O)CNCCCCN)[C@@H](C)c1ccccc1)[C@@H](C)c1ccccc1)[C@@H](C)c1ccccc1)[C@@H](C)c1ccccc1 [Peptoid 75] (H-[Nlys][Gly(N(CH2)2(3-indolyl))][Gly(N(CH2)2(3-indolyl))][Nlys][Nspe][Nspe][Nlys][Nspe][Nspe][Gly(N-CH2CH2-imidazol-4-yl)][Nlys][Nspe]-NH2)	6.3 µM (≈ 11.9 µg/mL)	6.3 µM (≈ 11.9 µg/mL)							68.0	> 100.0	18.3 ± 1.1
C[C@@H](c1ccccc1)N(CC(N)=O)C(=O)CN(CCc1c[nH]cn1)C(=O)CN(CCCCN)C(=O)CN(C(=O)CN(C(=O)CN(CCCCN)C(=O)CN(C(=O)CN(C(=O)CN(CCCCN)C(=O)CN(CCc1c[nH]c2ccccc12)C(=O)CN(CCc1c[nH]c2ccccc12)C(=O)CNCCCCN)[C@@H](C)c1ccccc1)[C@@H](C)c1ccccc1)[C@@H](C)c1ccccc1)[C@@H](C)c1ccccc1 [Peptoid 76] (H-[Nlys][Gly(N(CH2)2(3-indolyl))][Gly(N(CH2)2(3-indolyl))][Nlys][Nspe][Nspe][Nlys][Nspe][Nspe][Nlys][Gly(N-CH2CH2-imidazol-4-yl)][Nspe]-NH2)	6.3 µM (≈ 11.9 µg/mL)	6.3 µM (≈ 11.9 µg/mL)							>100.0/>100.0	>100.0/>100.0	10.1 ± 0.7
C[C@@H](c1ccccc1)N(CC(=O)N(CCc1c[nH]cn1)CC(=O)N(CCc1c[nH]c2ccccc12)CC(=O)N(CCc1c[nH]c2ccccc12)CC(N)=O)C(=O)CN(CCCCN)C(=O)CN(CCCCN)C(=O)CN(C(=O)CN(C(=O)CN(CCCCN)C(=O)CN(C(=O)CN(C(=O)CNCCCCN)[C@@H](C)c1ccccc1)[C@@H](C)c1ccccc1)[C@@H](C)c1ccccc1)[C@@H](C)c1ccccc1 [Peptoid 77] (H-[Nlys][Nspe][Nspe][Nlys][Nspe][Nspe][Nlys][Nlys][Nspe][Gly(N-CH2CH2-imidazol-4-yl)][Gly(N(CH2)2(3-indolyl))][Gly(N(CH2)2(3-indolyl))]-NH2)	12.5 µM (≈ 23.6 µg/mL)	6.3 µM (≈ 11.9 µg/mL)							>100.0/>100.0	>100.0/>100.0	3.2 ± 0.3
C[C@@H](c1ccccc1)N(CC(=O)N(CCCCN)CC(=O)N(CCc1c[nH]c2ccccc12)CC(=O)N(CCc1c[nH]c2ccccc12)CC(N)=O)C(=O)CN(CCc1c[nH]cn1)C(=O)CN(CCCCN)C(=O)CN(C(=O)CN(C(=O)CN(CCCCN)C(=O)CN(C(=O)CN(C(=O)CNCCCCN)[C@@H](C)c1ccccc1)[C@@H](C)c1ccccc1)[C@@H](C)c1ccccc1)[C@@H](C)c1ccccc1 [Peptoid 78] (H-[Nlys][Nspe][Nspe][Nlys][Nspe][Nspe][Nlys][Gly(N-CH2CH2-imidazol-4-yl)][Nspe][Nlys][Gly(N(CH2)2(3-indolyl))][Gly(N(CH2)2(3-indolyl))]-NH2)	6.3 µM (≈ 11.9 µg/mL)	6.3 µM (≈ 11.9 µg/mL)							>100.0/>100.0	>100.0/>100.0	5.2 ± 0.2

The next lines start with results.

MIC E. coli ATCC25922 (E. coli ATCC25922; ATCC25922)	MIC S. aureus ATCC 25923 (S. aureus ATCC 25923; ATCC 25923)	SMILES	peptoid decomposition after counter ion substitution (in words) [1]	antimicrobial activity (in words) (E. coli ATCC25922)	MIC E. coli ATCC25922 (E. coli ATCC25922; [2])	MIC S. aureus ATCC 25923 (S. aureus ATCC 25923; [3])	MIC S. aureus ATCC 25923 (S. aureus ATCC 25923; [2])	MIC E. coli ATCC25922 (E. coli ATCC25922; [3])	HD10 (red blood cells)	HD50 (red blood cells)	Hmax (100 μM) (red blood cells)
6.3 µM (≈ 11.9 µg/mL)	6.3 µM (≈ 11.9 µg/mL)	C[C@@H](c1ccccc1)N(CC(=O)N(CCCCN)CC(=O)N(CCc1c[nH]c2ccccc12)CC(=O)N(CCc1c[nH]c2ccccc12)CC(N)=O)C(=O)CN(CCCCN)C(=O)CN(CCc1c[nH]cn1)C(=O)CN(C(=O)CN(C(=O)CN(CCCCN)C(=O)CN(C(=O)CN(C(=O)CNCCCCN)[C@@H](C)c1ccccc1)[C@@H](C)c1ccccc1)[C@@H](C)c1ccccc1)[C@@H](C)c1ccccc1 [Peptoid 79] (H-[Nlys][Nspe][Nspe][Nlys][Nspe][Nspe][Gly(N-CH2CH2-imidazol-4-yl)][Nlys][Nspe][Nlys][Gly(N(CH2)2(3-indolyl))][Gly(N(CH2)2(3-indolyl))]-NH2)							>100.0/>100.0	>100.0/>100.0	8.5 ± 0.6
12.5 µM (≈ 23.6 µg/mL)	6.3 µM (≈ 11.9 µg/mL)	C[C@@H](c1ccccc1)N(CC(=O)N(CCCCN)CC(=O)N(CCc1c[nH]c2ccccc12)CC(=O)N(CCc1c[nH]c2ccccc12)CC(N)=O)C(=O)CN(CCCCN)C(=O)CN(CCCCN)C(=O)CN(C(=O)CN(C(=O)CN(CCc1c[nH]cn1)C(=O)CN(C(=O)CN(C(=O)CNCCCCN)[C@@H](C)c1ccccc1)[C@@H](C)c1ccccc1)[C@@H](C)c1ccccc1)[C@@H](C)c1ccccc1 [Peptoid 80] (H-[Nlys][Nspe][Nspe][Gly(N-CH2CH2-imidazol-4-yl)][Nspe][Nspe][Nlys][Nlys][Nspe][Nlys][Gly(N(CH2)2(3-indolyl))][Gly(N(CH2)2(3-indolyl))]-NH2)							>100.0/>100.0	>100.0/>100.0	4.0 ± 0.5
6.3 µM (≈ 11.9 µg/mL)	6.3 µM (≈ 11.9 µg/mL)	C[C@@H](c1ccccc1)N(CC(=O)N(CCCCN)CC(=O)N(CCc1c[nH]c2ccccc12)CC(=O)N(CCc1c[nH]c2ccccc12)CC(N)=O)C(=O)CN(CCCCN)C(=O)CN(CCCCN)C(=O)CN(C(=O)CN(C(=O)CN(CCCCN)C(=O)CN(C(=O)CN(C(=O)CNCCc1c[nH]cn1)[C@@H](C)c1ccccc1)[C@@H](C)c1ccccc1)[C@@H](C)c1ccccc1)[C@@H](C)c1ccccc1 [Peptoid 81] (H-[Gly(N-CH2CH2-imidazol-4-yl)][Nspe][Nspe][Nlys][Nspe][Nspe][Nlys][Nlys][Nspe][Nlys][Gly(N(CH2)2(3-indolyl))][Gly(N(CH2)2(3-indolyl))]-NH2)							>100.0/>100.0	>100.0/>100.0	5.7 ± 0.1
